Data reported in article PMC5951806, “Rapid labelling and covalent inhibition of intracellular native proteins using ligand-directed N-acyl-N-alkyl sulfonamide” (Nature Communications, 2018).
“And” between values parts separate entries of the source, which are not always exact repeats. Identical values can stand only once.

Assays:
proteins of SKBR3 cells = assay: Identification of 11-labelled proteins in live cells (TMT quantitative LC-MSMS), all proteins; type: cell-based, human; conditions: 0.5 µM, 3 h, three ligand-specific targets and three off-targets
Source text: (§1) The labelled proteins were enriched by immunoprecipitation with an anti-fluorescein antibody and tryptically digested in gel. Digested peptides were modified with Light- (L-), Medium- (M-), or Heavy- (H-) TMT reagent for samples treated with 11, 11 with PU-H71 (as competitive condition), or DMSO (vehicle), respectively, and mixed in a 1:1:1 ratio for LC-MSMS analysis. We performed three experimental replicates, in which proteins detected and quantified at least twice were selected as identified proteins. According to the related approach of Cravatt et al[44], the proteins having L/H (11/DMSO) ratios >5 were defined as 11-labelled proteins. […] On the basis of these criteria, we identified 6 proteins that react with 11, including three ligand-specific targets (Hsp90α (HSP90AA1), Hsp90β (HSP90AB1), and Grp94 (HSP90B1)) and three off-targets (Trifunctional enzyme subunit α (HADHA), Tubulin-α (TUBA1B), and ADP/ATP translocase 3 (SLC25A6)) (Fig. 5d, e and Supplementary Data 1). […] Grp94, a HSP90 isomer, was previously reported to be a PU-H71 specific target. TRAP-1, another Hsp90 isomer that can bind PU-H71, on the other hand, was not identified as 11-target by our criteria.
SKBR3 human breast cancer cells (2.0 × 10^6 cells) were seeded on a 10 cm dish and cultured for 3 days in McCoy’s 5A in a 5% CO2 humidified chamber at 37 °C. […]

[1] = biological target: Isoform 2 of Heat shock protein HSP 90-alpha (HSP90AA1) (Homo sapiens, UniProt P07900); assay: TMT LC-MSMS of 11-labelled proteins; type: cell-based
[2] = biological target: Dolichyl-diphosphooligosaccharide--protein glycosyltransferase subunit 1 (RPN1) (Homo sapiens, UniProt P04843); assay: TMT LC-MSMS of 11-labelled proteins; type: cell-based
Source text: Supplement 41467_2018_4343_MOESM4_ESM.xlsx, sheet "Exp2" | column: Abundance Ratio: (11) / (11 with PU-H71); Abundance Ratio: (11) / (DMSO); Abundances (Grouped): 11; Abundances (Grouped): 11 with PU-H71

endogenous Hsp90 = assay: Chemical labelling of endogenous Hsp90 in SKBR3 cells (in-gel fluorescence); type: cell-based, human; conditions: 3 h
[3] = test system: Isoform 4 of 4F2 cell-surface antigen heavy chain (SLC3A2); assay: TMT LC-MSMS of 11-labelled proteins; type: cell-based, Homo sapiens
Source text: as §1
(§2) SKBR3 human breast cancer cells (2.0 × 10^6 cells) were seeded on a 10 cm dish and cultured for 3 days in McCoy’s 5A in a 5% CO2 humidified chamber at 37 °C. […] As competitive experiments, the labelling was conducted in the presence of PU-H71 (10 µM). After labelling, the cells were washed twice with PBS, and lysed with RIPA buffer. […] The supernatant was mixed with chilled acetone and incubated overnight at −80 °C. The protein precipitates were solubilized by sonication in 1 mL of RIPA buffer containing 1% SDS, and then 10-fold diluted with RIPA buffer to reduce SDS concentration to c.a. 0.1%. The protein solution (containing 1 mg of protein) was mixed with Protein G Sepharose 4 Fast Flow (GE Healthcare) and rotated at 4 °C for 1 h. After removal of the beads, the remaining supernatant was mixed with anti-fluorescein antibody (Abcam, ab19491, 7:10000) and rotated at 4 °C for 1 h, followed by addition of fresh Protein G Sepharose 4 Fast Flow and further incubation at 4 °C for 4 h. The beads were washed five times with RIPA buffer and once with PBS. Proteins were eluted from the beads by addition of 2 × sample buffer containing 100 mM DTT and boiling at 95 °C for 5 min. The samples were subjected to a 7.5% SDS–PAGE gel (Mini-PROTEAN TGX Gels, BioRad), and electrophoresed as the migration distance of dye front is about 10 mm. Each lane was excised (height, 10 mm), and treated with a 47.5% methanol / 47.5% pure water / 5% acetic acid for 20 min, a 50% methanol / 50% pure water for 10 min, and in pure water for 10 min. The gel pieces were dehydrated with 100% acetonitrile, and then swelled with 200 μL of 100 mM TEAB (triethylamine bicarbonate) buffer containing 10 mM DTT and heated at 56 °C for 30 min. The solutions were replaced with 200 µL of 100 mM TEAB buffer containing 55 mM iodoacetamide and incubated for 45 min in the dark. The gel pieces were washed with 100 mM TEAB buffer and dehydrated in acetonitrile. This step was repeated once. The gels were reswelled in 100 mM TEAB buffer containing 10 ng/μL Sequencing Grade Trypsin (Promega) and incubated overnight at 37 °C. To the gels, 50 μL of an extraction solution (50% acetonitrile, 0.1% TFA) was added. After 10 min incubation, the supernatants were collected to new tubes, and this process was repeated twice. Extracted peptides were dried in vacuo and reconstituted with 25 μL of 100 mM TEAB buffer.

[4] = test system: Isoform 2 of Transketolase (TKT); assay: TMT LC-MSMS of 11-labelled proteins; type: cell-based, Homo sapiens
Source text: as §1, §2

[5] = test system: Isoform Long of Glucose-6-phosphate 1-dehydrogenase (G6PD); assay: TMT LC-MSMS of 11-labelled proteins; type: cell-based, Homo sapiens
Source text: as §1, §2

[6] = sheet Exp1, SKBR3 cells, 11 0.5 µM 3 h vs DMSO
[7] = sheet Exp1, SKBR3 cells, 11 0.5 µM 3 h vs with PU-H71 10 µM
[8] = sheet Merged, SKBR3 cells, 11 0.5 µM 3 h vs DMSO
[9] = sheet Merged, SKBR3 cells, 11 0.5 µM 3 h vs with PU-H71 10 µM

Dolichyl-diphosphooligosaccharide--protein glycosyltransferase subunit 1 (RPN1), sequence (P04843 24-607): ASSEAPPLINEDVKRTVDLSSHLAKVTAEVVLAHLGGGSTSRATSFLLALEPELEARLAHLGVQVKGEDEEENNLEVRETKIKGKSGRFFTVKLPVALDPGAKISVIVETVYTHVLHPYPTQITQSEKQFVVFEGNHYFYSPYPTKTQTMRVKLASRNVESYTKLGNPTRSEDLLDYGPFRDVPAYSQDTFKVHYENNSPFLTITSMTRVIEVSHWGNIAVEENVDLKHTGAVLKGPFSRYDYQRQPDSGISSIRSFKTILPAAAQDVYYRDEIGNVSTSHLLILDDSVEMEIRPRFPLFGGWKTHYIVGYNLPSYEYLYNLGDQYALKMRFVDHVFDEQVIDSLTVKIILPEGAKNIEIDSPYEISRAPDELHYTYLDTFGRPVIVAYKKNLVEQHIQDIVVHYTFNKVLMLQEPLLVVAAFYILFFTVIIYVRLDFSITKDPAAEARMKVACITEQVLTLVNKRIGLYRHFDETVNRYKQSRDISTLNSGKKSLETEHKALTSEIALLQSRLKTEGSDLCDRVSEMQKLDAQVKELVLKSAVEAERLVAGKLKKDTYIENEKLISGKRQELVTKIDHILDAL
Dolichyl-diphosphooligosaccharide--protein glycosyltransferase subunit 1 (RPN1), sequence (P39656 43-456 partner): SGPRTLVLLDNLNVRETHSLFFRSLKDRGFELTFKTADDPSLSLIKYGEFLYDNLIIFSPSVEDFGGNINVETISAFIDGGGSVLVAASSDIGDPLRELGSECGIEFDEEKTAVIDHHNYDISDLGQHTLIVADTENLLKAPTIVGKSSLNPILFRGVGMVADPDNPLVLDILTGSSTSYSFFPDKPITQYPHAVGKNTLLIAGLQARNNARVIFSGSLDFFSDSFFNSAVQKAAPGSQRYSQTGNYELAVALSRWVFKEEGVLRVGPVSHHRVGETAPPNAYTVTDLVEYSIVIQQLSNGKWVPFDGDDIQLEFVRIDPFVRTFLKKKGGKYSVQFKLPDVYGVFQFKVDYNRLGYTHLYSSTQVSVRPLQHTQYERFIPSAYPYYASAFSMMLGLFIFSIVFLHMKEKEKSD
Dolichyl-diphosphooligosaccharide--protein glycosyltransferase subunit 1 (RPN1), sequence (P04844 23-631 partner): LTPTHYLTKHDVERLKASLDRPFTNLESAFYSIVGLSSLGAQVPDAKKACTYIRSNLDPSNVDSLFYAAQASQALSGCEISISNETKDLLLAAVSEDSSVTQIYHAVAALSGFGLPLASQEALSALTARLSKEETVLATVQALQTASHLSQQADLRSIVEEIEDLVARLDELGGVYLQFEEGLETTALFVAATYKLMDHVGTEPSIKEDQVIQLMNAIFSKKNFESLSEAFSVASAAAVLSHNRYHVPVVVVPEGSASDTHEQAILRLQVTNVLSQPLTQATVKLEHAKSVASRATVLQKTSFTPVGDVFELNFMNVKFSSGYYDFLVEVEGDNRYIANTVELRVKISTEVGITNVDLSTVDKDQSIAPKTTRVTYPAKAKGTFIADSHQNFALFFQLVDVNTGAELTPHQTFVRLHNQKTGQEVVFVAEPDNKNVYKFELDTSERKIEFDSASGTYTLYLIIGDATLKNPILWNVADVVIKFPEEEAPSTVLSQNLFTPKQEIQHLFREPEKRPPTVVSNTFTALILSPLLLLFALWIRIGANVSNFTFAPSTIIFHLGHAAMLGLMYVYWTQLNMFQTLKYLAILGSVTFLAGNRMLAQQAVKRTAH
Dolichyl-diphosphooligosaccharide--protein glycosyltransferase subunit 1 (RPN1), sequence (P61803 whole entry partner): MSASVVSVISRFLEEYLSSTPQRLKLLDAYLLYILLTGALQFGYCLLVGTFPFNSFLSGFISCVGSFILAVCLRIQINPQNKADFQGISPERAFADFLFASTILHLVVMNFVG
Dolichyl-diphosphooligosaccharide--protein glycosyltransferase subunit 1 (RPN1), sequence (P61165 whole entry partner): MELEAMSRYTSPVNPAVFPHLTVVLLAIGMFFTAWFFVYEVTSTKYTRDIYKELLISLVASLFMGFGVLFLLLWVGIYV
Dolichyl-diphosphooligosaccharide--protein glycosyltransferase subunit 1 (RPN1), sequence (P0C6T2 whole entry partner): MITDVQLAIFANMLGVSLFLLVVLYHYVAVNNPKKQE

Abundance Ratio: (11) / (11 with PU-H71) ([1]; Exp3, HSP90AA1): 4.154 | Abundance Ratio: (11) / (DMSO) ([1]; Exp3, HSP90AA1): 13.53 | Abundances (Grouped): 11 ([1]; Exp3, HSP90AA1): 1235.3 | Abundances (Grouped): 11 with PU-H71 ([1]; Exp3, HSP90AA1): 297.4 | Abundance Ratio: (11) / (DMSO) [1, 6]: 12.472 | Abundance Ratio: (11) / (11 with PU-H71) [1, 7]: 3.732 | Abundance Ratio: (11) / (11 with PU-H71) ([1]; sheet Exp2, HSP90AA1): 3.971 | Abundance Ratio: (11) / (DMSO) ([1]; sheet Exp2, HSP90AA1): 11.996 | Abundances (Grouped): 11 ([1]; sheet Exp2, HSP90AA1): 903.3 | Abundances (Grouped): 11 with PU-H71 ([1]; sheet Exp2, HSP90AA1): 227.5 | Abundance Ratio: (11) / (DMSO) [1, 8]: 13.5 and 13.53 | Abundance Ratio: (11) / (11 with PU-H71) [1, 9]: 4.154 | Abundance Ratio: (11) / (11 with PU-H71) ([2]; sheet Exp2): 0.909 | Abundance Ratio: (11) / (DMSO) ([2]; sheet Exp2): 2.785 | Abundances (Grouped): 11 ([2]; sheet Exp2): 47.9 | Abundances (Grouped): 11 with PU-H71 ([2]; sheet Exp2, with PU-H71): 52.7
Structure (SMILES): CC(=O)Oc1ccc2c(c1)Oc1cc(OC(C)=O)ccc1C21OC(=O)c2cc(C(=O)NCCOCCOCCNC(=O)CCCC(=O)N(CC#N)S(=O)(=O)c3ccc(C(=O)NCCCn4c(Sc5cc6c(cc5I)OCO6)nc5c(N)ncnc54)cc3)ccc21 [compound 11]
number of proteins that react with 11 (L/H ratios >5) (proteins of SKBR3 cells): 6 | unspecific reaction at high concentrations (endogenous Hsp90; 1–10 µM, 37 °C): No increase in unspecific | endogenous Hsp90 labelling (endogenous Hsp90; up to ~10 µM): labelled endogenous Hsp90 (both α and β isoforms) | Abundance Ratio: (11) / (11 with PU-H71) ([3]; Exp3, SLC3A2): 0.823 | Abundance Ratio: (11) / (DMSO) ([3]; Exp3, SLC3A2): 3.728 | Abundances (Grouped): 11 ([3]; Exp3, SLC3A2): 115.2 | Abundances (Grouped): 11 with PU-H71 ([3]; Exp3, SLC3A2): 140 | Abundance Ratio: (11) / (DMSO) [3, 6]: 3.951 | Abundance Ratio: (11) / (11 with PU-H71) [3, 7]: 0.737 | Abundance Ratio: (11) / (11 with PU-H71) ([3]; sheet Exp2, SLC3A2): 0.802 | Abundance Ratio: (11) / (DMSO) ([3]; sheet Exp2, SLC3A2): 3.119 | Abundances (Grouped): 11 ([3]; sheet Exp2, SLC3A2): 91.7 | Abundances (Grouped): 11 with PU-H71 ([3]; sheet Exp2, SLC3A2): 114.4 | Abundance Ratio: (11) / (DMSO) [3, 8]: 3.119 | Abundance Ratio: (11) / (11 with PU-H71) [3, 9]: 0.802 | Abundance Ratio: (11) / (11 with PU-H71) ([4]; Exp3, TKT): 0.724 | Abundance Ratio: (11) / (DMSO) ([4]; Exp3, TKT): 1.695 | Abundances (Grouped): 11 ([4]; Exp3, TKT): 45.6 | Abundances (Grouped): 11 with PU-H71 ([4]; Exp3, TKT): 63 | Abundance Ratio: (11) / (DMSO) [4, 6]: 2.131 | Abundance Ratio: (11) / (11 with PU-H71) [4, 7]: 0.917 | Abundance Ratio: (11) / (11 with PU-H71) ([4]; sheet Exp2, TKT): 0.939 | Abundance Ratio: (11) / (DMSO) ([4]; sheet Exp2, TKT): 2.163 | Abundances (Grouped): 11 ([4]; sheet Exp2, TKT): 103.4 | Abundances (Grouped): 11 with PU-H71 ([4]; sheet Exp2, TKT): 110.1 | Abundance Ratio: (11) / (DMSO) [4, 8]: 2.131 | Abundance Ratio: (11) / (11 with PU-H71) [4, 9]: 0.917 | Abundance Ratio: (11) / (DMSO) [5, 6]: 6.472 | Abundance Ratio: (11) / (11 with PU-H71) [5, 7]: 0.948 | Abundance Ratio: (11) / (11 with PU-H71) ([5]; sheet Exp2, G6PD): 0.848 | Abundance Ratio: (11) / (DMSO) ([5]; sheet Exp2, G6PD): 1.663 | Abundances (Grouped): 11 ([5]; sheet Exp2, G6PD): 63.2 | Abundances (Grouped): 11 with PU-H71 ([5]; sheet Exp2, G6PD, with PU-H71): 74.5 | Abundance Ratio: (11) / (DMSO) [5, 8]: 3.281 | Abundance Ratio: (11) / (11 with PU-H71) [5, 9]: 0.897
